Measurements taken from patent US7319094B2, “Increased and sustained in vivo gene expression using a nucleic acid, histone and amphipathic compound composition” (Rhode Island Hospital, priority 2001, dated 2008).

Legend:
Type in all cases: cell-based, human
phospho-JNK = assay: Growth factor stimulated phospho-JNK, Western blot; settings: 5-30 min stimulation
Description: (§1) Standard Western blot assays wew used to measure cellular levels of p53, Bcl-2, p21/Waf1, phospho-tau, tau, c-fos, NTP, and activated (phosphorylated) forms of Erk mitogen activated protein (MAP) kinase, amino-terminal c-jun-activated kinase (pJNK), and p38/HOG1. Immunoprecipitation followed by Western blot analysis was used to measure p85 subunit associated with IRS1. For Western blot analysis of p53 Bcl-2, phospho-tau, tau, c-fos, and NTP, the cells were lysed in ice cold radioimmunoprecipitation assay (RIPA) buffer supplemented with protease and phosphatase inhibitors. For the immunoprecipitation studies, Western blot analysis of phospho-Erk, pJNK, and p38, and the PI3 kinase assays, the cells were harvested in Triton lysis buffer supplemented with protease and phosphatase inhibitors. Protein concentrations were measured using the BCA assay (Pierce, Rockford, Ill.). Samples containing 60 μg of protein were fractionated by sodium dodecyl sulfate polyacrylamide gel electrophoresis (SDS-PAGE), then transferred to PVDF membranes, and analyzed by Western immunoblotting. Immunoreactivity was detected with horseradish peroxidase conjugated secondary IgG and PicoWest enhanced chemiluminescence reagents (Pierce Chemical Company, Rockford, Ill.). CAT activity was measured using known methods.
The potential mechanisms by which the differential effects of insulin, IGF1 and PDGF might occur were explored by examining pathways, which mediate PNET2 neuronal apoptosis and neuritic sprouting. […] Western blot analysis was performed with cell lysates obtained from cultures stimulated with insulin, IGF1, or PDGF for 0-30 minutes or 24 hours with equivalent protein loading (60 μg/sample). The membranes were probed using antibodies to Erk, phospho-Erk, Jun, and phospho-JNK. […] In contrast, after 24 hours of AD7c-NTP gene induction and growth factor stimulation, high levels of phospho-Erk MAPK were detected in the IGF-1 and PDGF-stimulated cultures, but not in the serum-starved or insulin-stimulated cultures. […] In contrast, the levels of c-fos transcription factor were equally expressed after 24 hours IPTG induction of AD7c-NTP expression and either serum starvation or stimulation with insulin, IGF1 or PDGF.

phospho-tau = phospho-tau expression, Western blot / MICE assay; settings: PNET2 cells induced to express AD7c-NTP; relative to PDGF-stimulated cultures
Description: as §1, with “For the immunoprecipitation studies, Western blot analysis of phospho-Erk, pJNK, and p38, and the PI3 kinase assays, the cells were harvested in Triton lysis buffer supplemented with protease and phosphatase inhibitors.” left out
(§2) The MICE assay is known in the art (e.g., as described by de la Monte et al., 1999, Biotechniques 26:107301076). […] Immunoreactivity was detected using horseradish peroxidase conjugated secondary antibody (Pierce, Rockford, Ill.) and the TMB soluble peroxidase substrate (Pierce, Rockford, Ill.). […]

p25 = p25 expression, Western blot / MICE assay; settings: PNET2 cells induced to express AD7c-NTP
Description: as §1, with “For the immunoprecipitation studies, Western blot analysis of phospho-Erk, pJNK, and p38, and the PI3 kinase assays, the cells were harvested in Triton lysis buffer supplemented with protease and phosphatase inhibitors.” left out
as §2

insulin: Human insulin purchased from Novagen
phospho-JNK level, short-term stimulation (phospho-JNK): sharply increased and sustained elevations
phospho-tau level (phospho-tau): increased levels
p25 level (p25): significantly increased levels
